Tests used:
[1] = system: neonatal mouse oligodendrocyte progenitor cells; assay: MTT metabolic activity / toxicity assay on neonatal mouse OPCs; format: cell-based; details: 1 and 10 microM, viability vs DMSO
Method: Purified oligodendrocyte progenitor cells (OPC) obtained from neonatal mouse primary mixed glial cultures^25 were plated at the density of 6*10^4 cells/cm^2 into poly-L-lysine-coated 96 well plates. One day after plating, the cells were incubated with or without drugs (10, 1 and 0.1 μM) in DMSO (0.001% vehicle) for 48 hours. Compounds were screened for their ability to reduce [3-(4,5-dimethylthiazol-2-yl)-2,5-diphenyltetrazolium bromide (MTT)] using an automated microplate reader (Bio-rad, Hercules, CA, USA), as previously described.^25 MTT (0.25 mg/ml, Sigma-Aldrich, St Louis, MO) was added to the culture medium during the final 4 hours of incubation.
Toxicity of the full list of drugs (274) at 10 μM have been evaluated on neonatal mouse oligodendrocyte progenitor cells via metabolic activity by MTT. First, drugs able to reduce OPC viability were selected, identifying 90 compounds with a cytotoxic effect defined by the Efficacy Ratio ER (absorbance of drug/absorbance of vehicle; PMID: 28387380) (ER≤0.4) which have not been further investigated—and 44 drugs inhibiting OPC metabolism at lower level (0.5<ER<0.8)—which were analyzed in the next experimental setting. As a result, 90 compounds were cytotoxic, 44 compounds with low toxicity were retested at 1 and 0.1 μM, 140 compounds (ER>0.8) were non-toxic and were re-tested.

[2] = system: double fluorescence CG4 cell line (rat OPC line); assay: Toxicity assay (cell density) on double fluorescence CG4 line; format: cell-based; details: 1 and 10 microM, viability vs basal condition
Excerpt: Primary validation on CG4 line toxicity and differentiation. An innovative OPC line was developed for fast and reliable high content screening (HCS) of small compounds inducing oligodendrocyte differentiation. The line was genetically engineered by lentiviral transduction of rat CG4 cells (PubMed=1613821; DOI=10.1002/jnr.490310125; Louis J. C., Magal E., Muir D., Manthorpe M., Varon S.; CG-4, a new bipotential glial cell line from rat brain, is capable of differentiating in vitro into either mature oligodendrocytes or type-2 astrocytes. J. Neurosci. Res. 31:193-204(1992) to express mCherry fluorescent reporter (Evercooren, Anne & Avellana-Adalid, V. & Vitry, Sandrine & Nait-Oumesmar, Brahim & Lachapelle, Francois. (1997). Expansion of Oligodendrocyte Progenitors for Myelin Repair. 10.1007/978-1-4615-5949-8_21) in mature oligodendrocytes only, and EGFP at all stage of the oligodendroglial lineage: both the generation of mature oligodendrocytes (wmNl-mCherry) and the morphological changes associated with differentiation (CMV-EGFP) can be therefore monitored in a single assay. mCherry expression occurred only in O4+/GalC+ differentiated oligodendrocytes and GFP was ubiquitously expressed at all developmental stages. […]
Compounds (272) were tested at 1 μM, using a double fluorescence CG4 cell line (rat OPC line), 9 cis-retinoic acid (1 μM) served as a positive control.

O=C(N[C@@H]1CC[C@@H](c2cccc(F)c2F)CN(CC(F)(F)F)C1=O)N1CCC(n2c(=O)[nH]c3ncccc32)CC1 [Telcagepant]
cytotoxicity on neonatal mouse OPCs [1]: not toxic on oligodendrocytes | cytotoxicity on CG4 line [2]: not toxic on oligodendrocytes

— patent publication US20240148745A1, “COMPOUNDS FOR USE IN PROGRESSIVE MULTIPLE SCLEROSIS” (FONDAZIONE CENTRO SAN RAFFAELE, priority 2021, published 2024)
